Data set [1] concerns HepG2. As to the kind of experiment: Antiproliferative activity against human HepG2 cells xenografted in nude mouse model assessed as tumor inhibition rate at 15 mg/kg, ip administered once every two days for 21 days relative to control. In kind it is functional. The following applies: HepG2, 504 h, time 21 day.
In data set [2] the test system is SK-OV-3. As to the kind of experiment: Antiproliferative activity against human SK-OV-3 cells xenografted in nude mouse model assessed as tumor inhibition rate at 5 mg/kg, ip administered once every two days for 21 days relative to control. In kind it is functional. The following applies: SK-OV-3, 504 h, time 21 day. A general note: In xenograft studies the graft and the host belong to different species.

Data set [3] concerns HepG2. The data set is described as follows: Antiproliferative activity against human HepG2 cells incubated for 48 hrs by MTT assay. In kind it is functional, cell-based. The following applies: HepG2, 48 h. A general note: Tetrazolium dyes change colour on reduction, which living cells bring about.
For data set [4], the system named is T-24. As to the kind of experiment: Antiproliferative activity against human T24 cells xenografted in nude mouse model assessed as tumor inhibition rate at 5 mg/kg, ip administered once every two days for 21 days relative to control. In kind it is functional. The settings on record: T-24, 504 h, time 21 day.
Data set [5] is described as follows: Toxicity in nude mouse model xenografted with human T24 cells assessed as pathological change in lung at 5 to 15 mg/kg, ip administered once every two days for 21 days. In kind it is organism-based, T-24. The settings on record: in vivo, 504 h, dose 5-15 mg/kg, time 21 day.
Data set [6] deals with T-24. As to the kind of experiment: Antiproliferative activity against human T24 cells incubated for 48 hrs by MTT assay. It counts as functional, cell-based. The following applies: T-24, 48 h.
In data set [7] the test system is SK-OV-3. As to the kind of experiment: Antiproliferative activity against human SK-OV-3 cells incubated for 48 hrs by MTT assay. The following applies: SK-OV-3, 48 h. It counts as functional, cell-based.
The nature of data set [8]: Toxicity in nude mouse model xenografted with human HepG2 cells assessed as pathological change in heart at 5 to 15 mg/kg, ip administered once every two days for 21 days. In kind it is organism-based. The settings on record: in vivo, 504 h, dose 5-15 mg/kg, time 21 day.
Data set [9] in a line: Toxicity in nude mouse model xenografted with human SK-OV-3 cells assessed as pathological change in lung at 15 mg/kg, ip administered once every two days for 21 days. It counts as organism-based. The settings on record: in vivo, 504 h, time 21 day.
Data set [10] concerns SK-OV-3. As to the kind of experiment: Antiproliferative activity against human SK-OV-3 cells xenografted in nude mouse model assessed as tumor inhibition rate administered intraperitoneally once every two days for 21 days. The following applies: dose 15.0 mg/kg, route ip, time 21.0 day. It counts as functional, cell-based.
A short description of data set [11]: Toxicity in nude mouse model xenografted with human HepG2 cells assessed as pathological change in spleen at 5 to 15 mg/kg, ip administered once every two days for 21 days. The settings on record: in vivo, 504 h, dose 5-15 mg/kg, time 21 day. It counts as organism-based.
The nature of data set [12]: Toxicity in nude mouse model xenografted with human T24 cells assessed as pathological change in liver at 5 to 15 mg/kg, ip administered once every two days for 21 days. The settings on record: in vivo, 504 h, dose 5-15 mg/kg, time 21 day. It counts as organism-based, T-24.
The subject of data set [13] is T-24. As to the kind of experiment: Antiproliferative activity against human T24 cells xenografted in nude mouse model assessed as tumor inhibition rate at 15 mg/kg, ip administered once every two days for 21 days relative to control. In kind it is functional. The following applies: T-24, 504 h, time 21 day.
Data set [14] is described as follows: Toxicity in nude mouse model xenografted with human SK-OV-3 cells assessed as pathological change in spleen at 15 mg/kg, ip administered once every two days for 21 days. It counts as organism-based. The following applies: in vivo, 504 h, time 21 day.
The subject of another data set is A549/CDDP. The data set is described as follows: Antiproliferative activity against human A549/DDP cells incubated for 48 hrs by MTT assay. It counts as functional, cell-based.
The test system of data set [15] is SK-OV-3. As to the kind of experiment: Antiproliferative activity against human SK-OV-3 cells xenografted in nude mouse model assessed as tumor inhibition rate at 15 mg/kg, ip administered once every two days for 21 days relative to control. In kind it is functional. The following applies: SK-OV-3, 504 h, time 21 day.
Data set [16] is described as follows: Toxicity in nude mouse model xenografted with human T24 cells assessed as pathological change in heart at 5 to 15 mg/kg, ip administered once every two days for 21 days. The following applies: in vivo, 504 h, dose 5-15 mg/kg, time 21 day. In kind it is organism-based, T-24.
A short description of data set [17]: Toxicity in nude mouse model xenografted with human SK-OV-3 cells assessed as pathological change in liver at 15 mg/kg, ip administered once every two days for 21 days. In kind it is organism-based. The settings on record: in vivo, 504 h, time 21 day.
The nature of data set [18]: Toxicity in nude mouse model xenografted with human SK-OV-3 cells assessed as pathological change in heart at 15 mg/kg, ip administered once every two days for 21 days. The following applies: in vivo, 504 h, time 21 day. It counts as organism-based.
The subject of data set [19] is HepG2. The data set is described as follows: Antiproliferative activity against human HepG2 cells xenografted in nude mouse model assessed as tumor inhibition rate at 5 mg/kg, ip administered once every two days for 21 days relative to control. In kind it is functional. The following applies: HepG2, 504 h, time 21 day.
Data set [20] can be described thus: Toxicity in nude mouse model xenografted with human HepG2 cells assessed as pathological change in liver at 5 to 15 mg/kg, ip administered once every two days for 21 days. The following applies: in vivo, 504 h, dose 5-15 mg/kg, time 21 day. It counts as organism-based.
A short description of data set [21]: Toxicity in nude mouse model xenografted with human T24 cells assessed as pathological change in spleen at 5 to 15 mg/kg, ip administered once every two days for 21 days. It counts as organism-based, T-24. The settings on record: in vivo, 504 h, dose 5-15 mg/kg, time 21 day.
A further data set relates to A549. As to the kind of experiment: Antiproliferative activity against human A549 cells incubated for 48 hrs by MTT assay. In kind it is functional, cell-based.
In the next data set the test system is MGC-803. As to the kind of experiment: Antiproliferative activity against human MGC-803 cells incubated for 48 hrs by MTT assay. In kind it is functional, cell-based. The following applies: MGC-803, 48 h.
The nature of data set [22]: Toxicity in nude mouse model xenografted with human HepG2 cells assessed as pathological change in lung at 5 to 15 mg/kg, ip administered once every two days for 21 days. It counts as organism-based. The following applies: in vivo, 504 h, dose 5-15 mg/kg, time 21 day.

Active and inactive are the calls of the source. The rule behind the calls is not given here.

One may read the inhibition in vivo as the percentage by which the read-out fell short of the control. The term IC50 denotes the concentration that inhibits the measured activity by half. A high value points to weaker potency in that assay. In the case of `CN(C)CCN1C(=O)c2cccc3cc(N)cc(c23)C1=O` [AMONAFIDE], the inhibition in vivo at 15 mg/kg in the data set with HepG2 [1] was found to be 62%. For the same compound, the inhibition in vivo at 5 mg/kg in the data set on SK-OV-3 [2] was 62.1%; in the data set with T-24 [4], 70.6%. The compound further gave a half-maximal inhibitory concentration (IC50) with HepG2 [3] of 7.94 µM.

As for `CNCCCN1C(=O)c2cccc3c(N4CCN(C(=S)SCc5ccccc5)CC4)ccc(c23)C1=O`, the inhibition in vivo at 15 mg/kg was found to be 58.8% in the data set with HepG2 [1], 57.1% in the data set on T-24 [13] and 53.1% in the data set with SK-OV-3 [15]. The Activity entry in data set [5], in data set [8], in data set [9], in [11], in [12] and in [14] was “Non-Toxic” each time. Besides, the Activity result in data set [16], in data set [17], in data set [18], in data set [20], in data set [21] and in data set [22] was “Non-Toxic” each time. Also, the IC50 with T-24 [6] was determined as 0.59 µM; with SK-OV-3 [7] it was 1.07 µM; with HepG2 [3], 1.54 µM; in the data set with MGC-803 it was 3.04 µM. Besides, in the data set on SK-OV-3 [10], the inhibition entry was “Dose-Dependent Effect”. Moreover, the inhibition in vivo at 5 mg/kg in the data set with T-24 [4] came to 55.1%; in the data set with HepG2 [19], 53%. The result in the data set with A549/CDDP and in the data set with A549 was Active.

In the case of `CN(C)CCN1C(=O)c2cccc3c(N4CCN(C(=O)c5ccccc5)CC4)ccc(c23)C1=O`, the values for the inhibition in vivo at 15 mg/kg in the data set on HepG2 [1] and with T-24 [13] were 54.5% and 64.5%, respectively. Besides, the Activity result in data set [5], in data set [8], in data set [11], in data set [12], in [16] and in [20] was “Non-Toxic” throughout. In addition, the Activity result in data set [21] and in [22] was “Non-Toxic” throughout. The IC50 is 2.08 µM with T-24 [6], 2.01 µM in the data set on SK-OV-3 [7], 4.78 µM in the data set with HepG2 [3] and 5.73 µM in the data set with MGC-803. Further, the inhibition in vivo at 5 mg/kg in the data set on T-24 [4] is 55%; with HepG2 [19] it was 51.5%. Further, the outcome with A549/CDDP and in the data set on A549 was Active.

For `O=C1c2cccc3c(N4CCN(C(=S)SCc5ccccc5)CC4)ccc(c23)C(=O)N1CCc1ccc2c(c1)OCO2`, the half-maximal inhibitory concentration (IC50) in the data set with T-24 [6] was 14.6 µM; in the data set with SK-OV-3 [7], 10.5 µM; with HepG2 [3], 11.8 µM; with MGC-803, 12.1 µM.

On to `O=C1c2cccc3c(N4CCN(C(=S)SCc5ccccc5)CC4)ccc(c23)C(=O)N1Nc1ccccn1`, for which the IC50 in the data set with T-24 [6], with SK-OV-3 [7], in the data set with HepG2 [3] and in the data set on MGC-803 was above 50 µM in each case.

These data come from ChEMBL document CHEMBL5532646, “Discovery of 4-(N-dithiobenzyl piperazine)-1,8-naphthalimide as a potent multi-target antitumor agent with good efficacy, limited toxicity, and low resistance” (Eur J Med Chem, 2024).
